Test results as given in ChEMBL document CHEMBL3885861, “Open TG-GATES”.

Species: Rattus norvegicus
Assay: Open TG-GATES - Regimen: Single
Assay type: toxicity, organism-based, Sprague-Dawley
Set-up: regimen Single, gender Male, age 6 weeks
Details: in vivo, po, 100 mg/kg, route gavage, dose level Middle; for APTT / Bas / Eos / Fbg / Hb / Ht / Lym / MCH / MCHC / MCV / Mono / Neu / PT / Plat / RBC / Ret / WBC: tissue Blood; for KIDNEY_L / KIDNEY_R / KIDNEY_TOTAL: tissue Kidney; for LIVER: tissue Liver; for A/G / ALP / ALT / AST / BUN / CRE / Ca / Cl / DBIL / GLC / IP / K / LDH / Na / PL / RALB / TBIL / TC / TG / TP / gamma-GTP: tissue Plasma

## CC[C@H]1[C@@H]2C[C@H]3[C@@H]4N(C)c5ccccc5[C@]45C[C@@H]([C@@H]2[C@H]5O)N3[C@@H]1O [AJMALINE]
3 h
  TERMINAL_BW: 195.2 g
  APTT: 16.3 s
  Bas: 0%
  Eos: 0.6%
  Fbg: 201.2 mg/dL
  Hb: 13.1 g/dL
  Ht: 40.1%
  Lym: 80.2%
  MCH: 21.8 pg
  MCHC: 32.7%
  MCV: 66.7 fL
  Mono: 6.8%
  Neu: 12.4%
  PT: 11.8 s
  Plat: 115.9 x10_4/uL
  RBC: 602.8 x10_4/ul
  Ret: 12.1%
  WBC: 109.1 x10_2/uL
  KIDNEY_L: 0.9 g
  KIDNEY_R: 0.9 g
  KIDNEY_TOTAL: 1.8 g
  LIVER: 9.6 g
  A/G: 2.4
  ALP: 824.8 IU/L
  ALT: 33.4 IU/L
  AST: 64.6 IU/L
  BUN: 11.6 mg/dL
  CRE: 0.4 mg/dL
  Ca: 11.1 mg/dL
  Cl: 103 meq/L
  DBIL: 0.052 mg/dL
  GLC: 198.4 mg/dL
  IP: 9.1 mg/dL
  K: 4.5 meq/L
  LDH: 128 IU/L
  Na: 138.2 meq/L
  PL: 140.4 mg/dL
  RALB: 3.6 g/dL
  TBIL: 0.4 mg/dL
  TC: 75 mg/dL
  TG: 65.6 mg/dL
  TP: 5.2 g/dL
  gamma-GTP: 1.6 IU/L
6 h
  TERMINAL_BW: 187.8 g
  APTT: 17 s
  Bas: 0%
  Eos: 0.6%
  Fbg: 193.4 mg/dL
  Hb: 12.9 g/dL
  Ht: 39%
  Lym: 84.2%
  MCH: 21.8 pg
  MCHC: 33.1%
  MCV: 66 fL
  Mono: 5.8%
  Neu: 9%
  PT: 12.1 s
  Plat: 109.9 x10_4/uL
  RBC: 591.4 x10_4/ul
  Ret: 11.2%
  WBC: 76.5 x10_2/uL
  KIDNEY_L: 0.9 g
  KIDNEY_R: 0.9 g
  KIDNEY_TOTAL: 1.8 g
  LIVER: 8.5 g
  A/G: 2.2
  ALP: 849 IU/L
  ALT: 31.6 IU/L
  AST: 67.8 IU/L
  BUN: 9 mg/dL
  CRE: 0.5 mg/dL
  Ca: 11 mg/dL
  Cl: 102.6 meq/L
  DBIL: 0.044 mg/dL
  GLC: 191 mg/dL
  IP: 9.9 mg/dL
  K: 4.6 meq/L
  LDH: 99.2 IU/L
  Na: 138.4 meq/L
  PL: 140.2 mg/dL
  RALB: 3.5 g/dL
  TBIL: 0.4 mg/dL
  TC: 83.6 mg/dL
  TG: 60.4 mg/dL
  TP: 5.2 g/dL
  gamma-GTP: 1 IU/L
9 h
  TERMINAL_BW: 191.7 g
  APTT: 16.7 s
  Bas: 0%
  Eos: 1.2%
  Fbg: 206 mg/dL
  Hb: 12.9 g/dL
  Ht: 39.2%
  Lym: 75%
  MCH: 21.6 pg
  MCHC: 32.8%
  MCV: 65.6 fL
  Mono: 7.8%
  Neu: 16.2%
  PT: 11.9 s
  Plat: 115.9 x10_4/uL
  RBC: 597 x10_4/ul
  Ret: 9.5%
  WBC: 88.2 x10_2/uL
  KIDNEY_L: 0.9 g
  KIDNEY_R: 1 g
  KIDNEY_TOTAL: 1.9 g
  LIVER: 8.1 g
  A/G: 2.6
  ALP: 786.2 IU/L
  ALT: 33 IU/L
  AST: 67.2 IU/L
  BUN: 11 mg/dL
  CRE: 0.5 mg/dL
  Ca: 10.3 mg/dL
  Cl: 104.6 meq/L
  DBIL: 0.066 mg/dL
  GLC: 190.6 mg/dL
  IP: 10.6 mg/dL
  K: 4.8 meq/L
  LDH: 107 IU/L
  Na: 138 meq/L
  PL: 138 mg/dL
  RALB: 3.7 g/dL
  TBIL: 0.3 mg/dL
  TC: 79.8 mg/dL
  TG: 46 mg/dL
  TP: 5.2 g/dL
  gamma-GTP: 0.2 IU/L
24 h
  TERMINAL_BW: 205.6 g
  APTT: 16.3 s
  Bas: 0%
  Eos: 1%
  Fbg: 205.6 mg/dL
  Hb: 12.7 g/dL
  Ht: 38.5%
  Lym: 81.2%
  MCH: 21.8 pg
  MCHC: 33.1%
  MCV: 65.9 fL
  Mono: 5.8%
  Neu: 12.4%
  PT: 11.6 s
  Plat: 106.5 x10_4/uL
  RBC: 585.2 x10_4/ul
  Ret: 11.1%
  WBC: 105.9 x10_2/uL
  KIDNEY_L: 1 g
  KIDNEY_R: 1 g
  KIDNEY_TOTAL: 2 g
  LIVER: 10.2 g
  A/G: 2.2
  ALP: 869.2 IU/L
  ALT: 39.4 IU/L
  AST: 67.2 IU/L
  BUN: 17.4 mg/dL
  CRE: 0.6 mg/dL
  Ca: 10.9 mg/dL
  Cl: 102.2 meq/L
  DBIL: 0.03 mg/dL
  GLC: 204.2 mg/dL
  IP: 8.4 mg/dL
  K: 4.5 meq/L
  LDH: 105.2 IU/L
  Na: 139.8 meq/L
  PL: 142.6 mg/dL
  RALB: 3.7 g/dL
  TBIL: 0.4 mg/dL
  TC: 79.4 mg/dL
  TG: 81.6 mg/dL
  TP: 5.4 g/dL
  gamma-GTP: 0.8 IU/L
